{"source": "patent US20230277510A1", "about": "“SIROLIMUS MICROSPHERES AND METHOD OF MAKING SIROLIMUS MICROSPHERES” (M.A. Med Alliance SA, priority 2022, published 2023)", "origin": "cited, not measured here"}
{"smiles": "CO[C@H]1C[C@@H]2CC[C@@H](C)[C@@](O)(O2)C(=O)C(=O)N2CCCC[C@H]2C(=O)O[C@H]([C@H](C)C[C@@H]2CC[C@@H](O)[C@H](OC)C2)CC(=O)[C@H](C)/C=C(\\C)[C@@H](O)[C@@H](OC)C(=O)[C@H](C)C[C@H](C)/C=C/C=C/C=C/1C", "note": "[SRL, sirolimus]", "values": [{"measurement": "octanol/water partition coefficient (log P)", "value": 4.3}]}
